# Laboratory results: US5369096A, “Glycolipid derivatives” (The Nisshin Oil Mills, Ltd., priority 1992, dated 1994)
# Experiments:
# [1] = test system: Colo 201 cancer cells adhering to vascular endothelial cells of the normal human umbilical cord; experiment: inhibition of adhesion of Colo 201 cancer cells to rhIL1β-stimulated vascular endothelial cells, liposome dispersion; format: cell-based; settings: 11.8 μM equivalent; for Amount of Colo 201 cells adhered (fluorescence intensity): rhIL1β 200 U/ml, 485 nm
# Method: A solution of 200 μg of phosphatidylcholine, 100 μg of cholesterol, 7.5 μg of dicetyl phosphate and 50 μg of a compound of the invention in a mixture of chloroform/methanol=2/1 (ca. 1 ml) was evaporated under reduced pressure to dryness followed by addition of 0.25 ml of a phosphate-buffered saline solution. The mixture was ultrasonicated (an output of 90 watts) for 5 min. and stirred (a vortex mixer) for 5 min. to form a liposome dispersion.
# (§1) % Inhibition of adhesion=100-[(fluorescence intensity for rhIL1β-treated group+compound-free or a compound-containing liposome dispersion-treated group)-(fluorescence intensity for rhIL1β-untreated group)/(fluorescence intensity for rhIL1β-treated group-fluorescence intensity for rhIL1β-untreatedgroup)]×100
# Vascular endothelial cells of the normal human umbilical cord grown to confluence were stimulated in 24-well plates with 200 U/ml of rhIL1β at 37° C. for 4 hours. After removal of the supernatant by suction liposome dispersions each prepared from 2→3 sialyl Le^x or a compound of the invention in an amount of 11.8 μM equivalent were added except for the rhIL1β-untreated and treated groups. The mixtures were then allowed to react at room temperature for 30 min. Subsequently, colon carcinoma cell line Colo 201 with 2',7'-bis-(carboxyethyl)-5,6-carboxyfluorescene acetoxymethyl ester fluorescent dye enclosed was added at a level of 1×10^6 cells per well followed by centrifugal operation at 100 rpm for 20 min. Each well was washed three times followed by addition of 0.5 ml of 0.5% Triton X-100 and stirring. The contents were divided into 100 μl portions in 96-well plates and measurement was made on a Baxter fluorometer at 485 nm.
# 4: rhIL1β-treated group+2→3 sialyl Le^x -containing liposome dispersion-treated group
# 5: rhIL1β-treated group+compound 5E-containing liposome dispersion-treated group (OEG)*
# 6: rhIL1β-treated group+compound 5A-containing liposome dispersion-treated group (2EG)
# 7: rhIL1β-treated group+compound 5B-containing liposome dispersion-treated group (3EG)
# 8: rhIL1β-treated group+compound 5C-containing liposome dispersion-treated group (4EG)
# 9: rhIL1β-treated group+compound 5D-containing liposome dispersion-treated group (5EG)
# * OEG represents a control compound containing no CH2 CH2 O unit. The same shall apply hereinafter.
# Amount adhered and % inhibition of adhesion of Colo 201 cancer cells as measured from fluorescence intensity are shown in Table 2 below.
# [2] = test system: HL-60 cancer cells adhering to vascular endothelial cells of the normal human umbilical cord; experiment: inhibition of adhesion of HL-60 cancer cells to rhIL1β-stimulated vascular endothelial cells, oily emulsion; format: cell-based; settings: 20 μg/ml equivalent; for Amount of HL-60 cancer cells adhered (fluorescence intensity): rhIL1β 200 U/ml, 485 nm/535 nm
# Method: A mixed solution of 6 mg of egg yolk lecithin (manufactured by Nacalaitesque Inc.), 30 μl of soybean oil J. P. (manufactured by Yoshida Seiyaku), 470 μl of distilled water for injection (manufacturedby Otsuka Seiyaku) and 125 μg of a compound of the invention was ultrasonicated (an output of 90 watts) for 10 min. to prepare an oily emulsion. The oily emulsion was further passed through a polycarbonate membrane filter having 0.2 μm average pore diameter (manufactured by Millipore) to provide an average particle size of 0.2 μm.
# Vascular endothelial cells of the normal human umbilical cord grown to confluence were stimulated in 24-well plates with 200 U/ml of rhIL1β at 37° C. for 4 hours. After removal of the supernatant by suction, oily emulsions each prepared from a compound of the invention in an amount of 20 μg/ml equivalent were added except for the rhIL1β-untreated group (sample 1) and the treated groups (samples 2 and 3). The mixtures were then allowed to react at room temperature for 30 min. Subsequently, promyelocytic leukemia cell line HL-60 with 2',7'-bis(carboxyethyl)-5,6-carboxyfluorescene acetoxymethyl ester fluorescent dye enclosed was added at a level of 1×10^6 cells per well followed by centrifugal operation at 100 rpm for 20 min. Each well was washed three times followed by addition of 0.5 ml of 0.5% Triton X-100 and stirring. The contents were divided into 100 μl portions in 96-well plates and measurement was made on a Baxter fluorometer at 485 nm/535 nm.
# 4: rhIL1β-treated group+2→3 sialyl Lewis X (natural type)-containing oily emulsion dispersion-treated group
# 5: rhlL1β-treated group+compound 5E-containing oily emulsion dispersion-treated group (OEG)
# 6: rhIL1β-treated group+compound 5A-containing oily emulsion dispersion-treated group (2EG)
# 7: rhIL1β-treated group+compound 5B-containing oily emulsion dispersion-treated group (3EG)
# 8: rhIL1β-treated group+compound 5C-containing oily emulsion dispersion-treated group (4EG)
# 9: rhIL1β-treated group+compound 5D-containing oily emulsion dispersion-treated group (5EG)
# as §1, with “inhibition” for “Inhibition”, “oily emulsion” for “liposome”
SMILES,Amount of Colo 201 cells adhered (fluorescence intensity) [1],% Inhibition of adhesion ([1]; Colo 201 cells),Amount of HL-60 cancer cells adhered (fluorescence intensity) [2],% Inhibition of adhesion ([2]; HL-60 cells)
"CCCCCCCCCCCCCCC(CCCCCCCCCCCCCC)C(=O)Nc1ccc(COCCOCCO[C@@H]2O[C@H](CO)[C@@H](O[C@@H]3O[C@H](CO)[C@H](O)[C@H](O[C@]4(C(=O)O)C[C@H](O)[C@@H](NC(C)=O)[C@H]([C@H](O)[C@H](O)CO)O4)[C@H]3O)[C@H](O[C@@H]3O[C@@H](C)[C@@H](O)[C@@H](O)[C@@H]3O)[C@H]2O)cc1 [Compound 5A, O-(5-acetamido-3,5-dideoxy-D-glycero-α-D-galacto-2-nonulopyranosylonic acid)-(2→3)-O-β-D-galactopyranosyl-(1→4)-[O-α-L-fucopyranosyl-(1→3)-O-β-D-glucopyranosyl]-(1→1)-5-O-para-(2-tetradecylhexadecanoyl)aminobenzyl-3-oxapentane-1,5-diol]",246293,66.69%,13287,65.3%
"CCCCCCCCCCCCCCC(CCCCCCCCCCCCCC)C(=O)Nc1ccc(COCCOCCOCCO[C@@H]2O[C@H](CO)[C@@H](O[C@@H]3O[C@H](CO)[C@H](O)[C@H](O[C@]4(C(=O)O)C[C@H](O)[C@@H](NC(C)=O)[C@H]([C@H](O)[C@H](O)CO)O4)[C@H]3O)[C@H](O[C@@H]3O[C@@H](C)[C@@H](O)[C@@H](O)[C@@H]3O)[C@H]2O)cc1 [Compound 5B, O-(5-acetamido-3,5-dideoxy-D-glycero-α-D-galacto-2-nonulopyranosylonic acid)-(2→3)-O-β-D-galactopyranosyl-(1→4)-[O-α-L-fucopyranosyl-(1→3)-O-β-D-glucopyranosyl]-(1→1)-8-O-para-(2-tetradecylhexadecanoyl)aminobenzyl-3,6-dioxaoctane-1,8-diol]",212789,,6439,
"CCCCCCCCCCCCCCC(CCCCCCCCCCCCCC)C(=O)Nc1ccc(COCCOCCOCCOCCO[C@@H]2O[C@H](CO)[C@@H](O[C@@H]3O[C@H](CO)[C@H](O)[C@H](O[C@]4(C(=O)O)C[C@H](O)[C@@H](NC(C)=O)[C@H]([C@H](O)[C@H](O)CO)O4)[C@H]3O)[C@H](O[C@@H]3O[C@@H](C)[C@@H](O)[C@@H](O)[C@@H]3O)[C@H]2O)cc1 [Compound 5C, O-(5-acetamido-3,5-dideoxy-D-glycero-α-D-galacto-2-nonulopyranosylonic acid)-(2→3)-O-β-D-galactopyranosyl-(1→4)-[O-α-L-fucopyranosyl-(1→3)-O-β-D-glucopyranosyl]-(1→1)-11-O-para-(2-tetradecylhexadecanoyl)aminobenzyl-3,6,9-trioxaundecane-1,11-diol]",240330,,6762,
"CCCCCCCCCCCCCCC(CCCCCCCCCCCCCC)C(=O)Nc1ccc(COCCOCCOCCOCCOCCO[C@@H]2O[C@H](CO)[C@@H](O[C@@H]3O[C@H](CO)[C@H](O)[C@H](O[C@]4(C(=O)O)C[C@H](O)[C@@H](NC(C)=O)[C@H]([C@H](O)[C@H](O)CO)O4)[C@H]3O)[C@H](O[C@@H]3O[C@@H](C)[C@@H](O)[C@@H](O)[C@@H]3O)[C@H]2O)cc1 [Compound 5D, O-(5-acetamido-3,5-dideoxy-D-glycero-α-D-galacto-2-nonulopyranosylonic acid)-(2→3)-O-β-D-galactopyranosyl-(1→4)-[O-α-L-fucopyranosyl-(1→3)-O-β-D-glucopyranosyl]-(1→1)-5-O-para-(2-tetradecylhexadecanoyl)aminobenzyl-3,6,9,12-tetraoxatetradecane-1,14-diol]",240554,,2782,
